The values below come from patent publication EP3831859A1, “COPOLYMER FOR ELECTRODE BINDER AND LITHIUM ION SECONDARY BATTERY” (SHOWA DENKO K.K., priority 2019, dated 2021).

The nature of one series: n-octanol/water partition coefficient LogP (JIS Z 7260-117). Particulars: n-octanol/water.
Broadly, the chromatographic logP is lipophilicity estimated from chromatographic retention. On to `C=CC(=O)OCC(C)C` [isobutyl acrylate], for which the chromatographic logP stood at 2.16.

On to `C=CC(=O)OC1CCCCC1` [cyclohexyl acrylate], for which the chromatographic logP came to 2.76.

`C=CC(=O)OCCCCO` [4-hydroxybutyl acrylate]: the chromatographic logP is 0.59.

`C=C(C)C(=O)NCCO` [N-hydroxyethylmethacrylamide] returned a chromatographic logP of -0.95.

In turn, `C=CC(=O)NC` [N-methylacrylamide] had a chromatographic logP of -0.59.

Turning to `C=CC(N)=O` [acrylamide], the chromatographic logP was -0.56.

As for `C=C(C)C(=O)OC1CCCCC1` [cyclohexyl methacrylate], the chromatographic logP is 3.18.

Consider `C=CC(=O)OCC(CC)CCCC` (stereo not drawn) [2-ethylhexyl acrylate], for which the chromatographic logP was 4.2.

With `C=C(C)C(=O)OC` [methyl methacrylate], the chromatographic logP amounted to 1.38.

`C=C(C)C(=O)NCO` [N-hydroxymethylmethacrylamide] had a chromatographic logP of -0.96.

`C=CC(=O)OCCCC` [n-butyl acrylate]: the chromatographic logP is 2.32.

The compound `C=C(C)C(=O)OCCCCCCCCCCCCCCCCCC` [stearyl methacrylate] showed a chromatographic logP of 9.87.

Turning to `C=CC(=O)OCCO` [2-hydroxyethyl acrylate], the chromatographic logP came out at 0.01.

`C=CC(=O)OC(C)(C)C` [tert-butyl acrylate]: the chromatographic logP came to 2.06.

Compound `C=CC(=O)OC` [methyl acrylate] had a chromatographic logP of 0.8.

In turn, `C=C(C)C(=O)OCCO` [2-hydroxyethyl methacrylate] registered a chromatographic logP of 0.43.

`C=C(C)C(=O)OCCCC` [n-butyl methacrylate]: the chromatographic logP stood at 2.74.

Staying with this series, now noted: n-octanol/water partition coefficient.
The LogP is a log measure of how a compound divides between an organic and an aqueous phase. Higher therefore signals higher lipophilicity. The compound `C=CC(=O)OC1CC2CCC1(C)C2(C)C` (stereo not drawn) [isoboronyl acrylate] displayed a LogP of 4.03.

Turning to `C=CC(=O)OCCCC` [n-butyl acrylate], the LogP entry is reported as “Acrylic acid-n butyl (E-1) LogP = 2.32”.

As for `C=C(C)C(=O)OC1CC2CCC1(C)C2(C)C` (stereo not drawn) [isoboronyl methacrylate], the LogP was determined as 4.45.

Staying with this series, now noted: n-octanol/water, LogP, n-octanol/water partition coefficient.
The compound `C=CC(=O)NCCCN(C)C` [N-(dimethylaminopropyl) acrylamide] came in with a chromatographic logP of -0.24.

In the case of `C=C(C)C(=O)OC(C)(C)C` [tert-butyl methacrylate], the chromatographic logP stood at 2.48.

For `C=CC(=O)OCCC(=O)O` [β-carboxyethyl acrylate], the chromatographic logP worked out at 0.31.

With `O=C(O)/C=C/C(=O)O` [fumaric acid], the chromatographic logP was -0.45.

Regarding `C=CC(=O)NCC(C)O` (stereo not drawn) [N-(2-hydroxypropyl) acrylamide], the chromatographic logP was -1.37.

As for `C=C(C)C(=O)NCC` [N-ethylmethacrylamide], the chromatographic logP came to 0.34.

Compound `C/C=C/C(=O)O` [crotonic acid] came in with a chromatographic logP of 0.66.

In the case of `C=C(CC(=O)O)C(=O)O` [itaconic acid], the chromatographic logP is -0.08.

`C=C(C)C(=O)OCC(C)O` (stereo not drawn) [2-hydroxypropyl methacrylate]: the chromatographic logP is 0.78.

For `C=CC(=O)OCCCCCCCCCCCCCCCCCC` [stearyl acrylate], the chromatographic logP was found to be 9.45.

`C=CC(=O)NCCC` [N-propylacrylamide] had a chromatographic logP of 0.43.

Compound `C=C(C)C(=O)OCC(C)C` [isobutyl methacrylate] yielded a chromatographic logP of 2.58.

The compound `C=C(C)C(N)=O` [methacrylamide] displayed a chromatographic logP of -0.14.

Take `C=CC(=O)OCC(C)O` (stereo not drawn) [2-hydroxypropyl acrylate]: the chromatographic logP is 0.36.

Turning to `C=CC(=O)NCN(C)C` [N-(dimethylaminomethyl) acrylamide], the chromatographic logP is -0.47.

`C=C(C)C(=O)NCC(C)O` (stereo not drawn) [N-(2-Hydroxypropyl) methacrylamide] yielded a chromatographic logP of 0.95.

The compound `C=C(C)C(=O)OC(C)C` [isopropyl methacrylate] returned a chromatographic logP of 2.07.

`C=CC(=O)OCC` [ethyl acrylate]: the chromatographic logP was found to be 1.32.

For `C=CC(=O)NCCN(C)C` [N-(dimethylaminoethyl) acrylamide], the chromatographic logP is -0.28.

`C=C(C)C(=O)OCCC` [n-propyl methacrylate]: the chromatographic logP came out at 2.23.

`C=C(C)C(=O)NC` [N-methylmethacrylamide]: the chromatographic logP was -0.17.

`C=C(C)C(=O)NC(C)C` [N-isopropylmethacrylamide] showed a chromatographic logP of 0.7.

As for `O=C(O)/C=C\C(=O)O` [maleic acid], the chromatographic logP is -0.45.

Another series is described as follows: physchem.
Details: not given
`C=CC(=O)NC(C)(C)CC(C)=O` [diacetone acrylamide] displayed a chromatographic logP of 0.04.

Still in this series, the particulars now being: LogP.
Take `C=C(C)C(=O)OCC(CC)CCCC` (stereo not drawn) [2-ethylhexyl methacrylate]: the chromatographic logP turned out to be 4.62.

The compound `C=CC(=O)NCC` [N-ethylacrylamide] came in with a chromatographic logP of -0.08.

Consider `C=CC(=O)N(C)C` [N, N-dimethylacrylamide], for which the chromatographic logP was -0.14.

`C=CC(=O)NCO` [N-hydroxymethylacrylamide] displayed a chromatographic logP of -1.38.
